In US20260092061A1, “COMPOUNDS FOR TARGETED PROTEIN DEGRADATION” (Amphista Therapeutics Limited, priority 2022, published 2026):
Each block holds one compound with its values, some of them ahead of it.

What was measured:
[1] = molecular target: T1, BRD9 (Homo sapiens, UniProt Q9H8M2); experiment: BRD9 degradation, HiBiT-BRD9 KI HEK293 (LgBiT) cells, NanoGlo Lytic Endpoint assay (Assay Protocol 1); format: cell-based; details: BRD9 degradation; for Dmax: read-out: Dmax
T1 sequence (Q9H8M2 1-597): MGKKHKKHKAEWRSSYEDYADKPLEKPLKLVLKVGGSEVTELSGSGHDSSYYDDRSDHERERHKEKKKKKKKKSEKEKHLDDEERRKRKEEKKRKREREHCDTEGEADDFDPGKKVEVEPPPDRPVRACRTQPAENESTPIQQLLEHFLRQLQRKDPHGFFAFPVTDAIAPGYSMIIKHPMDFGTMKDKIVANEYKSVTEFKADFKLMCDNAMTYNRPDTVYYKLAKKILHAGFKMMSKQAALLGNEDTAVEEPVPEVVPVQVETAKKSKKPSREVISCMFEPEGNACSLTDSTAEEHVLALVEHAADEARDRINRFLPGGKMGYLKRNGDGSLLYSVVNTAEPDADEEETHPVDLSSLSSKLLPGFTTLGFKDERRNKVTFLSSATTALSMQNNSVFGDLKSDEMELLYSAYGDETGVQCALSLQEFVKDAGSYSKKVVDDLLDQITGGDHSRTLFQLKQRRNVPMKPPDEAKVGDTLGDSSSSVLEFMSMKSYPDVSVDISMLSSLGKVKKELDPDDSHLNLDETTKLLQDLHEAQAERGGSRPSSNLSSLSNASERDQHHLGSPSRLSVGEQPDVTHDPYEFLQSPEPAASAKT
Method in brief: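 HiBiT-tagged BRD9 knock-in HEK293 (LgBiT) cells exposed to compounds for 6 h at 37 °C, 5% CO2. Residual BRD9 measured by HiBiT lytic luminescence. % BRD9 remaining normalised to DMSO-treated cells (high) and no-cell wells (low).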

[2] = molecular target: T1, BRD9; experiment: Degradation of BRD9 (IF), immunofluorescence in MV4-11 cells, 24 hours (Assay Protocol 2); format: cell-based; set-up: A suspension of MV4-11 cells (ATCC CRL-9591) was prepared; host or cells: MV4-11
Method in brief: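 % BRD9 remaining, scaled between DMSO (high) and 100 nM CFT-8634 (low) control wells, derives from mean Alexa 647 contrast in central nuclei by high-content imaging. MV4-11 cells had 24 h compound exposure at 37° C. before PFA fixation, Triton permeabilisation and anti-BRD9 E4Q3F immunostaining.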

[3] = Assay protocol 1, read-out: DC50
[4] = Assay protocol 2, BRD9 degradation, read-out: DC50
[5] = MV4-11, Assay protocol 2, BRD9 degradation, read-out: Dmax

Structure (SMILES): COc1cc(-c2cn(C)c(=O)c(C)c2C)cc(OC)c1CN(C)C(=O)c1ccc2c(c1)CCN(C(=O)/C(C#N)=C/c1cccc(Br)n1)C2C (mixture of isomers) [Compound B17, (E/Z)-2(3-(6-bromopyridin-2-yl)-2-cyanoacryloyl)-N-(2,6-dimethoxy-4-(1,4,5-trimethyl-6-oxo-1,6-dihydropyridin-3-yl)benzyl)-N,1-dimethyl-1,2,3,4-tetrahydroisoquinoline-6-carboxamide]
- DC50 [1, 3]: 25 to 1000 nM
- Dmax ([1]; HEK293, Assay protocol 1): 40 to 70%
- DC50 [2, 4]: 25 to 1000 nM
- Dmax [2, 5]: 40 to 70%

Structure (SMILES): COc1cc(-c2cn(C)c(=O)c(C)c2C)cc(OC)c1CN1C2CC1CN(Cc1cccc3c1CCN(C(=O)/C(C#N)=C/C(C)(C)C)C3C)C2 (mixture of isomers) [Compound B13, (E/Z)-2-(5-((6-(2,6-dimethoxy-4-(1,4,5-trimethyl-6-oxo-1,6-dihydropyridin-3-yl)benzyl)-3,6-diazabicyclo[3.1.1]heptan-3-yl)methyl)-1-methyl-1,2,3,4-tetrahydroisoquinoline-2-carbonyl)-4,4-dimethylpent-2-enenitrile]
- DC50 [1, 3]: 10 to 25 nM
- Dmax ([1]; HEK293, Assay protocol 1): > 75%
- DC50 [2, 4]: 1.25 to 10 nM
- Dmax [2, 5]: 40 to 70%

Structure (SMILES): CCCC(c1ccc(C(=O)N(C)CCCCC(=O)N2CCN(Cc3c(OC)cc(-c4cn(C)c(=O)c(C)c4C)cc3OC)CC2)cc1)N(C)C(=O)/C(C#N)=C/c1nccs1 (mixture of isomers) [Compound B181, (E/Z)-4-(1-(2-cyano-N-methyl-3-(thiazol-2-yl)acrylamido)butyl)-N-(5-(4-(2,6-dimethoxy-4-(1,4,5-trimethyl-6-oxo-1,6-dihydropyridin-3-yl)benzyl)piperazin-1-yl)-5-oxopentyl)-N-methylbenzamide]
- Dmax ([1]; HEK293, Assay protocol 1): 40 to 70%
- DC50 [2, 4]: 10 to 25 nM
- Dmax [2, 5]: 40 to 70%

Structure (SMILES): COc1cc(-c2cn(C)c(=O)c3cnccc23)cc(OC)c1CN(C)Cc1ccc2c(c1)CCN(C(=O)/C(C#N)=C/c1cccc(Br)n1)C2C (mixture of isomers) [Compound A66]
- Dmax at 1 µM ([1]; HEK293, Table 2, Assay Protocol 1, 1 μM compound at 6 h of treatment, read-out: Assay 1 Dmax): 40 to 70%
- DC50 ([1]; Table 2, Assay Protocol 1, 6 h of treatment, read-out: Assay 1 DC50): < 1.25 nM
- Dmax ([2]; MV4-11, 24 h, Table 2, BRD9 degradation (IF), Assay Protocol 2, MV4-11 cells, read-out: Assay 2 DCmax): > 75%
- DC50 ([2]; Table 2, BRD9 degradation (IF), Assay Protocol 2, MV4-11 cells, read-out: Assay 2 DC50): < 1.25 nM

Structure (SMILES): COc1cc(-c2cn(C)c(=O)c(C)c2C)cc(OC)c1CN1CC2CC(C1)N2Cc1cccc2c1CCN(C(=O)/C(C#N)=C/c1ccnc(C)n1)C2C (mixture of isomers) [Compound B25, (E/Z)-2-(5-((3-(2,6-dimethoxy-4-(1,4,5-trimethyl-6-oxo-1,6-dihydropyridin-3-yl)benzyl)-3,6-diazabicyclo[3.1.1]heptan-6-yl)methyl)-1-methyl-1,2,3,4-tetrahydroisoquinoline-2-carbonyl)-3-(2-methylpyrimidin-4-yl)acrylonitrile]
- DC50 [1, 3]: 1.25 to 10 nM
- Dmax ([1]; HEK293, Assay protocol 1): > 75%
- DC50 [2, 4]: 1.25 to 10 nM
- Dmax [2, 5]: > 75%

Structure (SMILES): CCCC(c1ccc(C(=O)N(C)CCC(=O)N2CCN(Cc3c(OC)cc(-c4cn(C)c(=O)c(C)c4C)cc3OC)CC2)cc1)N(C)C(=O)/C(C#N)=C/c1nccs1 (centres unmarked) [Compound B180]
- Dmax ([1]; HEK293, Assay protocol 1): 40 to 70%
- Dmax [2, 5]: 40 to 70%

Second part, the compound after the results:

- DC50 [1, 3]: 1.25 to 10 nM
- Dmax ([1]; HEK293, Assay protocol 1): > 75%
- DC50 [2, 4]: < 1.25 nM
- Dmax [2, 5]: > 75%
Structure (SMILES): COc1cc(-c2cn(C)c(=O)c(C)c2C)cc(OC)c1CN(C)Cc1ccc2c(c1)C(C)N(C(=O)/C(C#N)=C/c1cccc(Br)n1)CC2 (mixture of isomers) [Compound B5, (E/Z)-3-(6-bromopyridin-2-yl)-2-(7-(((2,6-dimethoxy-4-(1,4,5-trimethyl-6-oxo-1,6-dihydropyridin-3-yl)benzyl)(methyl)amino)methyl)-1-methyl-1,2,3,4-tetrahydroisoquinoline-2-carbonyl)acrylonitrile]

- DC50 [1, 3]: 1.25 to 10 nM
- Dmax ([1]; HEK293, Assay protocol 1): > 75%
- DC50 [2, 4]: < 1.25 nM
- Dmax [2, 5]: > 75%
Structure (SMILES): COc1cc(-c2cn(C)c(=O)c(C)c2C)cc(OC)c1CN1CCN(Cc2cccc3c2CCN(C(=O)/C(C#N)=C/C2(C)CCOCC2)C3C)C2(CC2)C1 (mixture of isomers) [Compound B123, (E/Z)-2-(5-((7-(2,6-dimethoxy-4-(1,4,5-trimethyl-6-oxo-1,6-dihydropyridin-3-yl)benzyl)-4,7-diazaspiro[2.5]octan-4-yl)methyl)-1-methyl-1,2,3,4-tetrahydroisoquinoline-2-carbonyl)-3-(4-methyltetrahydro-2H-pyran-4-yl)acrylonitrile]

- DC50 [1, 3]: 1.25 to 10 nM
- Dmax ([1]; HEK293, Assay protocol 1): > 75%
- DC50 [2, 4]: 1.25 to 10 nM
- Dmax [2, 5]: > 75%
Structure (SMILES): COc1cc(-c2cn(C)c(=O)c(C)c2C)cc(OC)c1CN(C)Cc1cccc2c1CCN(C(=O)/C(C#N)=C/c1cccc(Br)n1)C2C (mixture of isomers) [Compound B14, (E/Z)-3-(6-bromopyridin-2-yl)-2-(5-(((2,6-dimethoxy-4-(1,4,5-trimethyl-6-oxo-1,6-dihydropyridin-3-yl)benzyl)(methyl)amino)methyl)-1-methyl-1,2,3,4-tetrahydroisoquinoline-2-carbonyl)acrylonitrile]

- DC50 [1, 3]: 1.25 to 10 nM
- Dmax ([1]; HEK293, Assay protocol 1): > 75%
- DC50 [2, 4]: 1.25 to 10 nM
- Dmax [2, 5]: 70 to 75%
Structure (SMILES): COc1cc(-c2cn(C)c(=O)c(C)c2C)cc(OC)c1CN1CCN(Cc2cccc3c2CCN(C(=O)/C(C#N)=C/C(C)(C)N2CCN(C4COC4)CC2)C3C)C2(CC2)C1 (mixture of isomers) [Compound B126, (E/Z)-2-(5-((7-(2,6-dimethoxy-4-(1,4,5-trimethyl-6-oxo-1,6-dihydropyridin-3-yl)benzyl)-4,7-diazaspiro[2.5]octan-4-yl)methyl)-1-methyl-1,2,3,4-tetrahydroisoquinoline-2-carbonyl)-4-methyl-4-(4-(oxetan-3-yl)piperazin-1-yl)pent-2-enenitrile]

- DC50 [1, 3]: 1.25 to 10 nM
- Dmax ([1]; HEK293, Assay protocol 1): 40 to 70%
- Dmax [2, 5]: 25 to 40%
Structure (SMILES): COc1cc(-c2cn(C)c(=O)c(C)c2C)cc(OC)c1CN1CCN(Cc2cccc3c2CCN(C(=O)/C(C#N)=C/c2ccc(C)cn2)C3C)CC1 (mixture of isomers) [Compound B18, (E/Z)-2-(5-((4-(2,6-dimethoxy-4-(1,4,5-trimethyl-6-oxo-1,6-dihydropyridin-3-yl)benzyl)piperazin-1-yl)methyl)-1-methyl-1,2,3,4-tetrahydroisoquinoline-2-carbonyl)-3-(5-methylpyridin-2-yl)acrylonitrile]

- DC50 [1, 3]: 1.25 to 10 nM
- Dmax ([1]; HEK293, Assay protocol 1): 70 to 75%
- Dmax [2, 5]: 40 to 70%
Structure (SMILES): COc1cc(-c2cn(C)c(=O)c(C)c2C)cc(OC)c1CN1CCN(Cc2cccc3c2CCN(C(=O)/C(C#N)=C/c2ncc(C(F)(F)F)s2)C3C)CC1 (mixture of isomers) [Compound B10, (E/Z)-2-(5-((4-(2,6-dimethoxy-4-(1,4,5-trimethyl-6-oxo-1,6-dihydropyridin-3-yl)benzyl)piperazin-1-yl)methyl)-1-methyl-1,2,3,4-tetrahydroisoquinoline-2-carbonyl)-3-(5-(trifluoromethyl)thiazol-2-yl)acrylonitrile]

- DC50 [1, 3]: < 1.25 nM
- Dmax ([1]; HEK293, Assay protocol 1): 40 to 70%
- DC50 [2, 4]: 1.25 to 10 nM
- Dmax [2, 5]: 40 to 70%
Structure (SMILES): COc1cc(-c2cn(C)c(=O)c(C)c2C)cc(OC)c1CN1CCN(Cc2cccc3c2CCN(C(=O)/C(C#N)=C/c2cccc(C)n2)C3C)CC1 (mixture of isomers) [Compound B24, (E/Z)-2-(5-((4-(2,6-dimethoxy-4-(1,4,5-trimethyl-6-oxo-1,6-dihydropyridin-3-yl)benzyl)piperazin-1-yl)methyl)-1-methyl-1,2,3,4-tetrahydroisoquinoline-2-carbonyl)-3-(6-methylpyridin-2-yl)acrylonitrile]
